# Read-outs that look alike come from different tables or passages of the source.
# Assays:
# Assay type in all cases: cell-based
# [1] = target: EGFR Del/T790M Ba/F3 cells (Homo sapiens, UniProt P00533, T790M, cells depend on it, form not given); assay: Ba/F3 cell growth inhibition (MTS assay), EGFR Del/T790M
# From the text: (§1) The specific cDNAs encoding the oncogenic alterations (EGFR: Del 19, L858R, L718Q, L844V, Del/T790M, L858R/T790M, Del 19/L718Q, Del 19/L844V, Del 19/T790M/L718Q and L858R/T790M/L718Q; FGFR: TEL-FGFR1, TEL-FGFR2, TEL-FGFR1 V561M, TEL-FGFR2 V561M; ALK: EML4-ALK; ROS1: CD74-ROS1) were cloned into the pDNA-Dual (BD Biosciences) vector using standard molecular biology techniques. Mutations were introduced using site-directed mutagenesis (Agilent) with mutant specific primers according to the manufacturer's instructions. All constructs were confirmed by DNA sequencing. The constructs were introduced into Ba/F3 cells using retroviral infection. Polyclonal cell lines were established by puromycin selection and subsequently cultured in the absence of interleukin-3 (IL-3). Uninfected Ba/F3 cells or cell lines expressing green fluorescent protein (GFP) were used as controls.
# (§2) Growth and inhibition of growth was assessed by MTS assay. This assay, a colorimetric method for determining the number of viable cells, is based on the bioreduction of 3-(4,5-dimethylthiazol-2-yl)-5-(3-carboxymethoxyphenyl)-2-(4-sulfophenyl)-2H-tetrazolium (MTS) by cells to a formazan product that is soluble in cell culture medium, can be detected spectrophotometrically and was performed according to the manufacturer's recommended conditions. Ba/F3 cells were exposed to treatment for 72 hours and the number of cells used per experiment determined empirically to assure linear growth kinetics over that time period. All experimental points were set up in six to twelve wells and all experiments were repeated at least three times. […] The curves were fitted using a non-linear regression model with a sigmoidal dose response.
# EGFR L858R Ba/F3 cells = EGFR L858R Ba/F3 cells (Homo sapiens (Human), UniProt P00533, L858R); assay: Ba/F3 cell growth inhibition (MTS assay), EGFR L858R
# From the text: as §1, §2
# [2] = target: EGFR L858R/T790M Ba/F3 cells (Homo sapiens (Human), UniProt P00533, L858R/T790M); assay: Ba/F3 cell growth inhibition (MTS assay), EGFR L858R/T790M
# From the text: as §1, §2
# [3] = target: EGFR L718Q/L858R Ba/F3 cells (Homo sapiens (Human), UniProt P00533, L718Q/L858R); assay: Ba/F3 cell growth inhibition (MTS assay), EGFR L858R/L718Q; details: for EGFR activity (% Control, 100 nM drug) L858R/L718Q: Table F
# [4] = target: EGFR L858R/T790M/L718Q Ba/F3 cells (Homo sapiens (Human), UniProt P00533, L718Q/L858R/T790M); assay: Ba/F3 cell growth inhibition (MTS assay), EGFR L858R/T790M/L718Q; details: for EGFR activity (% Control, 100 nM drug) L858R/T790M/L718Q: Table F
# From the text: as §1, §2
# EGFR Del Ba/F3 cells = EGFR Del Ba/F3 cells (Homo sapiens, UniProt P00533, cells depend on it, form not given); assay: Ba/F3 cell growth inhibition (MTS assay), EGFR Del; details: for EGFR activity (% Control, 100 nM drug) Del: Table F
# From the text: as §1, §2
# [5] = target: EGFR Del/T790M/L718Q Ba/F3 cells (Homo sapiens, UniProt P00533, L718Q/T790M, cells depend on it, form not given)
# From the text: as §1, §2
# KIF5B/Ret_V804M = assay: Ba/F3 cell growth inhibition (MTS assay), KIF5B/Ret_V804M
# Experimental: as §2
SMILES,"EGFR activity (% Control, 100 nM drug) DEL/T790M ([1]; 100 nM drug, Table F) [% Control]","EGFR activity (% Control, 100 nM drug) L858R (EGFR L858R Ba/F3 cells; Table F) [% Control]","EGFR activity (% Control, 100 nM drug) L858R/T790M ([2]; Table F) [% Control]","EGFR activity (% Control, 100 nM drug) L858R/L718Q [3] [% Control]","EGFR activity (% Control, 100 nM drug) L858R/T790M/L718Q [4] [% Control]","EGFR activity (% Control, 100 nM drug) Del (EGFR Del Ba/F3 cells) [% Control]","EGFR activity (% Control, 1.0 μM drug) Assay 1 Del/T790M [1] [% Control]","EGFR activity (% Control, 1.0 μM drug) Assay 1 Del (EGFR Del Ba/F3 cells) [% Control]",other results
CN(C)C/C=C/C(=O)Nc1cccc(Nc2cc(N(C)C(=O)Nc3ccccc3)ncn2)c1 [Compound 21A],107,4,100,94,102,10,,,
C=CC(=O)Nc1cccc(Nc2cc(N(C)C(=O)NCc3ccccc3)ncn2)c1 [Compound 17A],85,2,52,81,85,28,,,"IC50 ([1]; Assay 1, Del/T790M, read-out: EGFR Ba/F3 cells IC 50 (nM) Assay 1 Del/T790M): 682 nM; IC50 (EGFR L858R Ba/F3 cells; Assay 1, L858R, read-out: EGFR Ba/F3 cells IC 50 (nM) Assay 1 L858R): 7.62 nM; IC50 ([2]; Assay 1, L858R/T790M, read-out: EGFR Ba/F3 cells IC 50 (nM) Assay 1 L858R/T790M): 275 nM; IC50 ([3]; Assay 1, L718Q/L858R, read-out: EGFR Ba/F3 cells IC 50 (nM) Assay 1 L718Q/L858R): 1960 nM; IC50 ([4]; Assay 1, T/L/L718Q, read-out: EGFR Ba/F3 cells IC 50 (nM) Assay 1 T/L/L718Q): 2500 nM; IC50 (EGFR Del Ba/F3 cells; Assay 1, Del, read-out: EGFR Ba/F3 cells IC 50 (nM) Assay 1 Del): 63.9 nM"
C=CC(=O)Nc1cccc(Nc2cc(N(C)C(=O)Nc3ccc(F)c(Cl)c3)ncn2)c1 [Compound 19A],71,100,101,74,99,79,,,
C=CC(=O)Nc1cccc(N(C(=O)Nc2ccccc2)c2cc(NC)ncn2)c1 [Compound 14A],98,1,75,76,87,24,,,
"C=CC(=O)Nc1cccc(Oc2nc(Nc3ccc(N4CCN(C)CC4)cc3OC)ncc2Cl)c1 [WZ4002, reference compound]",,2,3,94,104,,1,3,"EGFR activity (% Control, 100 nM drug) DEL/T790M [1]: 2 % Control; EGFR activity (% Control, 100 nM drug) Del/T790M [1]: 6 % Control; EGFR activity (% Control, 1.0 μM drug) Assay 2 Del/T790M [1]: 3 % Control; EGFR activity (% Control, 100 nM drug) L858R (EGFR L858R Ba/F3 cells; Table G): 0 % Control; EGFR activity (% Control, 1.0 μM drug) Assay 1 L858R (EGFR L858R Ba/F3 cells; 1.0 μM drug, Assay 1): 2 % Control; EGFR activity (% Control, 1.0 μM drug) Assay 2 L858R (EGFR L858R Ba/F3 cells; 1.0 μM drug, Assay 2): 2 % Control; EGFR activity (% Control, 1.0 μM drug) Assay 1 Del/T790M/L718Q [5]: 91 % Control; EGFR activity (% Control, 1.0 μM drug) Assay 2 Del/T790M/L718Q [5]: 85 % Control; EGFR activity (% Control, 100 nM drug) L858R/T790M ([2]; Table G): 30 % Control; EGFR activity (% Control, 1.0 μM drug) Assay 1 KIF5B/Ret_V804M (KIF5B/Ret_V804M): 93 % Control; EGFR activity (% Control, 1.0 μM drug) Assay 2 Del (EGFR Del Ba/F3 cells): 6 % Control"
Cc1ccc(C(=O)Nc2ccc(CN3CCN(C)CC3)c(C(F)(F)F)c2)cc1C#Cc1cnc2cccnn12 [Ponatinib],,,,,,,79,17,"EGFR activity (% Control, 1.0 μM drug) Assay 1 L858R (EGFR L858R Ba/F3 cells): 98 % Control; EGFR activity (% Control, 1.0 μM drug) Assay 1 Del/T790M/L718Q ([5]; 1.0 μM drug, Assay 1): 48 % Control; KIF5B/Ret_V804M Ba/F3 cell growth (% control, 1.0 μM drug) (KIF5B/Ret_V804M; Assay 1): 2 % Control"

# From patent US10906878B2, “Kinase inhibitors for the treatment of disease” (Dana-Farber Cancer Institute, Inc., priority 2013, dated 2021)
